In this assay the target is T1, Aromatase (Homo sapiens, UniProt P11511).
T1 sequence (P11511 whole entry): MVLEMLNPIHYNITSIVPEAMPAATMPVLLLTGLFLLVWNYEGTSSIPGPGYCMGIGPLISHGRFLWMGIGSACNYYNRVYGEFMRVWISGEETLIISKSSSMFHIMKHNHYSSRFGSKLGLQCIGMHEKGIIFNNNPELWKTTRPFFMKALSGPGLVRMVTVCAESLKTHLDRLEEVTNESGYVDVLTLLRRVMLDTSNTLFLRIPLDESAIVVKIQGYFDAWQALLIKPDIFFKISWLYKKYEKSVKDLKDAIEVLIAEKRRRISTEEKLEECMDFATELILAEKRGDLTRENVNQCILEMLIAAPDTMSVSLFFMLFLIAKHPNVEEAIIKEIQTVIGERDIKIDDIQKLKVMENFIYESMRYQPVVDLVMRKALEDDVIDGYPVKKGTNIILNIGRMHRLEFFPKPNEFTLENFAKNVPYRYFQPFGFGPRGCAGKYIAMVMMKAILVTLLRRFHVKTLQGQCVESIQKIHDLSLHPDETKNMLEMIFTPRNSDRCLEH

pKi: −log10 of the molar value.

`O=c1c(-c2ccc(O)cc2)coc2cc(O)cc(O)c12` [GENISTEIN] gave a pKi of 3.91.

As a reminder, the pKi is the Ki on a negative log10 scale, so that one unit is a factor of ten. A high value points to a small Ki.

Values taken from ChEMBL document CHEMBL1138663, “Synthesis and aromatase inhibitory activity of novel pyridine-containing isoflavones” (J Med Chem, 2004).
